Experimental data from PubChem BioAssay (NCI).
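48-hour exposure; five concentrations; linearly interpolated endpoints. Here, GI50 denotes the concentration required for 50% inhibition of growth. Definition used: TGI = concentration required for complete inhibition of growth.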

tested on: MDA-MB-468 breast; assay: inhibition of tumour cell growth, NCI panel, 48 h

Point of comparison: `CCCCNC(c1ccc(Cl)cc1)C(O)c1ccc(Cl)cc1` (configuration not stated), GI50 1690 nM. Against it:
- O=C1c2cc3c(cc2-c2c1c1cc(F)c(F)cc1c(=O)n2CCCn1ccnc1)OCO3 — 82-fold lower, 20.5 nM
- O=C(NCc1ncc[nH]1)c1ccc(-c2nc3ccc4[nH]ncc4c3c3c2CCCC3)cc1 — 2.6-fold lower, 640 nM
- Cn1c(I)c(C#C[Si](C)(C)C)c(=O)n(C(=O)c2ccccc2)c1=O — within 1.5-fold, 1190 nM
- COC1=CC(c2ccc[nH]2)=N/C1=C\c1[nH]c(C)c(C(=O)CCCCCCCCC(=O)O[C@H]2CC[C@H]3C4CCc5cc(O)ccc5C4CC[C@]23C)c1C (some centres not stated) — 3-fold lower, 560 nM
- O=C1C=CC(=O)c2c(O)c(N3CCN(CCO)CC3)c(Cl)c(O)c21 — 5.9-fold lower, 286 nM
- CN(C)CCC(=O)Nc1ccc(-n2cc(-c3cccc(NC(=S)Nc4cccc(-c5cn(-c6ccc(NC(=O)CCN(C)C)cc6)nn5)c4)c3)nn2)cc1 — 2.8-fold higher, 4740 nM
- CC1=NN(c2cccc(Cl)c2)C(=O)/C1=C\c1cn(CC(O)CN2CCCCC2)c2ccccc12 (configuration not stated) — 6.2-fold higher, 10400 nM
- Cn1c(COC(=O)NCCc2ccccn2)nc2c(N3CCOCC3)nc(Cl)nc21 — within 1.5-fold, 1560 nM
- C/C(=C(/c1ccc(O)cc1)c1ccc(OCCN(C)C)cc1)c1ccc(Cl)cc1 — 7.9-fold higher, 13400 nM
- COc1cc(N2C(=O)[C@H](Cl)C2c2ccc(SC)cc2)cc(OC)c1OC (some centres not stated) — 6.2-fold lower, 274 nM
- COc1ccc(-c2ccc(OC)c(OC)c2OC)cc1 — 4.5-fold lower, 377 nM
- C/C(=N/NC(=S)Nc1ccccc1)c1nc2ccc(Cl)cc2[nH]1 — 9.3-fold lower, 181 nM
- COc1ccc2c(c1)C(=O)c1c-2c(OCCCN(C)C)nc2cc(Br)ccc12 — 2.8-fold higher, 4680 nM
- O=C(Nc1n[nH]c2cc(-c3cc(F)ccc3F)ccc12)C1CC1 — 3.6-fold higher, 6060 nM
- NC(N)=N/N=C\c1ccc(OCc2ccccc2)cc1 — within 1.5-fold, 1230 nM
- O=c1[nH]c(C2CCCN2)nc2c1oc1ccc(Cl)cc12 (configuration not stated) — higher, > 67400 nM
- Cc1cccc(N2C(=O)/C(=C/C(Cl)=C/c3ccc([N+](=O)[O-])cc3)SC2=S)c1C — the same, 1690 nM
- C[C@@H]1C[C@@H]([C@H](O)CC2CC(=O)NC(=O)C2)C(=O)[C@@H](C)C1 — 6.8-fold lower, 250 nM
- CC(C)(C)C[C@H]1N[C@@H](C(=O)NC2CCC(O)CC2)[C@H](c2cccc(Cl)c2F)[C@@]12C(=O)Nc1cc(Cl)ccc12 (some centres not stated) — 2.1-fold higher, 3540 nM
- Nc1cc2c3c(cccc3c1)C(=O)N(CCN1CCCC1)C2=O — 2.7-fold higher, 4480 nM
- O=C1C(=O)c2c(nc3ccc(C(F)(F)F)cn23)-c2ccccc21 — 7.2-fold lower, 234 nM
- C[C@@]1(F)[C@H](O)[C@@H](CO)O[C@H]1n1ccc(=O)[nH]c1=O — higher, > 100000 nM
- CCCCCCCC(=O)OCC/C=C/C1OC1C1OC(=O)/C=C\C=C\C(=O)N(C(C)=O)C(=O)/C=C(/C)CCC2OC2C1OC(=O)NC(C)=O (configuration not stated) — within 1.5-fold, 1210 nM
- COc1ccc(-n2c(=S)sc3c(Cl)nc(C)nc32)c(OC)c1 — within 1.5-fold, 1980 nM
- COc1cc(C2CC(c3ccc(Nc4nc(NCCO)nc(NCCO)n4)cc3)=NN2c2cc(Cl)cc(Cl)c2)cc(OC)c1OC (configuration not stated) — within 1.5-fold, 1680 nM
- Cc1ccccc1NC(=O)Nc1nc2ccc([N+](=O)[O-])cc2s1 — within 1.5-fold, 2410 nM
- CCOC(=O)Nc1ccc2nc(-c3cscn3)[nH]c2c1 — within 1.5-fold, 2440 nM
- CCN(CC)C(=S)SSC(C)C — 10-fold higher, 17300 nM
- OCc1ccc(N(Cc2ccc(F)cc2)Cc2ccc(F)cc2)cc1Cl — 5-fold lower, 341 nM
- COc1ccc2[nH]c(C(=O)N3CCN(C(=O)OCc4ccc5c(Cl)cc(Cl)c(O)c5n4)CC3)cc2c1 — within 1.5-fold, 1260 nM
- CCCCCCCC/C=C/CCCCCCCC1=NC(C)(C)CN1C(C)(C)CO — within 1.5-fold, 1730 nM
- C#C[C@]1(O)CC[C@H]2[C@@H]3CC=C4c5sc(Nc6ccc(Cl)cn6)nc5CC[C@]4(C)[C@H]3CC[C@@]21C — 4.5-fold higher, 7650 nM
- Cn1c(COC(=O)NCCn2ccnc2)nc2c(N3CCOCC3)nc(-c3ccccc3)nc21 — 4.7-fold lower, 360 nM
- COc1cc(/C=N/NC(=O)c2cnn3c2NC(c2ccccc2)C3)ccc1OC1CCCC1 (configuration not stated) — 3.2-fold lower, 524 nM
- O=C1NC(=NCCc2ccc(Cl)cc2)S/C1=C\c1ccc2ncccc2c1 — 4.4-fold higher, 7500 nM

Point of comparison: `Cn1c(COC(=O)NCCn2ccnc2)nc2c(N3CCOCC3)nc(-c3ccccc3)nc21`, TGI 1460 nM. Against it:
- O=C1c2cc3c(cc2-c2c1c1cc(F)c(F)cc1c(=O)n2CCCn1ccnc1)OCO3 — 16-fold lower, 90.7 nM
- CCCCNC(c1ccc(Cl)cc1)C(O)c1ccc(Cl)cc1 (configuration not stated) — 2.3-fold higher, 3300 nM
- O=C(NCc1ncc[nH]1)c1ccc(-c2nc3ccc4[nH]ncc4c3c3c2CCCC3)cc1 — within 1.5-fold, 1850 nM
- Cn1c(I)c(C#C[Si](C)(C)C)c(=O)n(C(=O)c2ccccc2)c1=O — 2-fold higher, 2870 nM
- COC1=CC(c2ccc[nH]2)=N/C1=C\c1[nH]c(C)c(C(=O)CCCCCCCCC(=O)O[C@H]2CC[C@H]3C4CCc5cc(O)ccc5C4CC[C@]23C)c1C (some centres not stated) — higher, > 50000 nM
- O=C1C=CC(=O)c2c(O)c(N3CCN(CCO)CC3)c(Cl)c(O)c21 — within 1.5-fold, 1000 nM
- CN(C)CCC(=O)Nc1ccc(-n2cc(-c3cccc(NC(=S)Nc4cccc(-c5cn(-c6ccc(NC(=O)CCN(C)C)cc6)nn5)c4)c3)nn2)cc1 — 16-fold higher, 22700 nM
- CC1=NN(c2cccc(Cl)c2)C(=O)/C1=C\c1cn(CC(O)CN2CCCCC2)c2ccccc12 (configuration not stated) — 17-fold higher, 25500 nM
- Cn1c(COC(=O)NCCc2ccccn2)nc2c(N3CCOCC3)nc(Cl)nc21 — 2.6-fold higher, 3770 nM
- C/C(=C(/c1ccc(O)cc1)c1ccc(OCCN(C)C)cc1)c1ccc(Cl)cc1 — 22-fold higher, 31900 nM
- COc1cc(N2C(=O)[C@H](Cl)C2c2ccc(SC)cc2)cc(OC)c1OC (some centres not stated) — higher, > 100000 nM
- COc1ccc(-c2ccc(OC)c(OC)c2OC)cc1 — 3-fold higher, 4370 nM
- C/C(=N/NC(=S)Nc1ccccc1)c1nc2ccc(Cl)cc2[nH]1 — 1.9-fold lower, 776 nM
- COc1ccc2c(c1)C(=O)c1c-2c(OCCCN(C)C)nc2cc(Br)ccc12 — 12-fold higher, 18000 nM
- O=C(Nc1n[nH]c2cc(-c3cc(F)ccc3F)ccc12)C1CC1 — higher, > 25000 nM
- NC(N)=N/N=C\c1ccc(OCc2ccccc2)cc1 — 1.8-fold higher, 2640 nM
- O=c1[nH]c(C2CCCN2)nc2c1oc1ccc(Cl)cc12 (configuration not stated) — higher, > 100000 nM
- Cc1cccc(N2C(=O)/C(=C/C(Cl)=C/c3ccc([N+](=O)[O-])cc3)SC2=S)c1C — 2.9-fold higher, 4250 nM
- C[C@@H]1C[C@@H]([C@H](O)CC2CC(=O)NC(=O)C2)C(=O)[C@@H](C)C1 — 2.8-fold higher, 4050 nM
- CC(C)(C)C[C@H]1N[C@@H](C(=O)NC2CCC(O)CC2)[C@H](c2cccc(Cl)c2F)[C@@]12C(=O)Nc1cc(Cl)ccc12 (some centres not stated) — 13-fold higher, 18500 nM
- Nc1cc2c3c(cccc3c1)C(=O)N(CCN1CCCC1)C2=O — 14-fold higher, 21100 nM
- O=C1C(=O)c2c(nc3ccc(C(F)(F)F)cn23)-c2ccccc21 — 2.6-fold lower, 560 nM
- C[C@@]1(F)[C@H](O)[C@@H](CO)O[C@H]1n1ccc(=O)[nH]c1=O — higher, > 100000 nM
- CCCCCCCC(=O)OCC/C=C/C1OC1C1OC(=O)/C=C\C=C\C(=O)N(C(C)=O)C(=O)/C=C(/C)CCC2OC2C1OC(=O)NC(C)=O (configuration not stated) — 3.8-fold higher, 5600 nM
- COc1ccc(-n2c(=S)sc3c(Cl)nc(C)nc32)c(OC)c1 — 4.5-fold higher, 6570 nM
- COc1cc(C2CC(c3ccc(Nc4nc(NCCO)nc(NCCO)n4)cc3)=NN2c2cc(Cl)cc(Cl)c2)cc(OC)c1OC (configuration not stated) — 3.1-fold higher, 4480 nM
- Cc1ccccc1NC(=O)Nc1nc2ccc([N+](=O)[O-])cc2s1 — 3.7-fold higher, 5370 nM
- CCOC(=O)Nc1ccc2nc(-c3cscn3)[nH]c2c1 — higher, > 100000 nM
- CCN(CC)C(=S)SSC(C)C — 31-fold higher, 45800 nM
- OCc1ccc(N(Cc2ccc(F)cc2)Cc2ccc(F)cc2)cc1Cl — within 1.5-fold, 1700 nM
- COc1ccc2[nH]c(C(=O)N3CCN(C(=O)OCc4ccc5c(Cl)cc(Cl)c(O)c5n4)CC3)cc2c1 — 1.9-fold higher, 2780 nM
- CCCCCCCC/C=C/CCCCCCCC1=NC(C)(C)CN1C(C)(C)CO — 2.2-fold higher, 3230 nM
- C#C[C@]1(O)CC[C@H]2[C@@H]3CC=C4c5sc(Nc6ccc(Cl)cn6)nc5CC[C@]4(C)[C@H]3CC[C@@]21C — higher, > 100000 nM
- COc1cc(/C=N/NC(=O)c2cnn3c2NC(c2ccccc2)C3)ccc1OC1CCCC1 (configuration not stated) — 3.9-fold higher, 5710 nM
- O=C1NC(=NCCc2ccc(Cl)cc2)S/C1=C\c1ccc2ncccc2c1 — higher, > 25000 nM
